According to patent publication US9169254B2, “Spiroimidazolone derivative” (Chugai Seiyaku Kabushiki Kaisha, priority 2009, dated 2015):

target: T1, human PTH1 receptor (Homo sapiens, UniProt Q03431); assay: In vitro cAMP signal activity in HKRK-B7 cells (LLC-PK1 cells overexpressing the human PTH1 receptor); format: cell-based; conditions: HKRK-B7 cells; compound at 1×10^−3 M; cAMP produced as percentage of that produced by hPTH(1-34) at 100 nM
T1 sequence (Q03431 27-593): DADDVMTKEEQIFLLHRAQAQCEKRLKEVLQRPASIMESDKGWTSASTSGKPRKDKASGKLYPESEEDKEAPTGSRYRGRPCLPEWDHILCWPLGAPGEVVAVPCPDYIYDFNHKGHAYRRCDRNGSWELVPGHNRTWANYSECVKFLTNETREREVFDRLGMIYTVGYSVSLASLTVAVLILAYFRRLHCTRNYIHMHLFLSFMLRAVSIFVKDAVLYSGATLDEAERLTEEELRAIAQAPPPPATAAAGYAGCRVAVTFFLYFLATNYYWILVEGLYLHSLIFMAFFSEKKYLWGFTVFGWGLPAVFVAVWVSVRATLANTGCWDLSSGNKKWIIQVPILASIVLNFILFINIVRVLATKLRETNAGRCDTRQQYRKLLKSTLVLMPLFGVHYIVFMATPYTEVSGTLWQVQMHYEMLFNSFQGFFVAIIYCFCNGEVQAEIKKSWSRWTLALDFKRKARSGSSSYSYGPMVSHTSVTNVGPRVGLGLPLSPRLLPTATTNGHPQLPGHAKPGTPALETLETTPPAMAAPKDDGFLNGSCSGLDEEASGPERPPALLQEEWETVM

cAMP production activity (%) | SMILES
83 | Cc1cc(S(=O)(=O)NC[C@@H](O)CO)ccc1CCS(=O)(=O)N1CCC2(CC1)N=C(c1cccc(OC(F)(F)F)c1)NC2=O [Compound 851, N—((R)-2,3-dihydroxy-propyl)-3-methyl-4-{2-[4-oxo-2-(3-trifluoromethoxy-phenyl)-1,3,8-triaza-spiro[4.5]dec-1-ene-8-sulfonyl]-ethyl}-benzenesulfonamide]
105 | Cc1cc(C(=O)N2CCC(C)(O)CC2)cc(C)c1/C=C/[S@TB4](=O)(=O)N1CCC2(CC1)N=C(c1ccc(C(F)(F)F)c(C(F)(F)F)c1)NC2=O [Compound 1095, 2-(3,4-bis-trifluoromethyl-phenyl)-8-{(E)-2-[4-(4-hydroxy-4-methyl-piperidine-1-carbonyl)-2,6-dimethyl-phenyl]-ethenesulfonyl}-1,3,8-triaza-spiro[4.5]dec-1-en-4-one]
61 | Cc1cc(NS(N)(=O)=O)ccc1CCS(=O)(=O)N1CCC2(CC1)N=C(c1cccc(OC(F)(F)F)c1)NC2=O [Compound 874, N-(3-methyl-4-{2-[4-oxo-2-(3-trifluoromethoxy-phenyl)-1,3,8-triaza-spiro[4.5]dec-1-ene-8-sulfonyl]-ethyl}-phenyl)-sulfamide]
64 | CNc1cc(C)c(CCS(=O)(=O)N2CCC3(CC2)N=C(C(C)(F)F)NC3=O)c(C)c1.Cl [Compound 1287, 2-(1,1-difluoro-ethyl)-8-[2-(2,6-dimethyl-4-methylamino-phenyl)-ethanesulfonyl]-1,3,8-triaza-spiro[4.5]dec-1-en-4-one hydrochloride]
106 | CCCCCCCCCC1=NC2(CCN(S(=O)(=O)CCc3c(C)cc(C(=O)N4CC[C@@H](O)C4)cc3C)CC2)C(=O)N1 [Compound 981, 8-{2-[4-((R)-3-hydroxy-pyrrolidine-1-carbonyl)-2,6-dimethyl-phenyl]-ethanesulfonyl}-2-nonyl-1,3,8-triaza-spiro[4.5]dec-1-en-4-one]
118 | CCCc1cc2ccc(C3=NC4(CCN(S(=O)(=O)CCc5c(C)cc(N(C)C(N)=O)cc5C)CC4)C(=O)N3)cc2o1 [Compound 1355, 1-(3,5-dimethyl-4-{2-[4-oxo-2-(2-propyl-benzofuran-6-yl)-1,3,8-triaza-spiro[4.5]dec-1-ene-8-sulfonyl]-ethyl}-phenyl)-1-methyl-urea]
95 | Cc1cc(N(C)C(N)=O)cc(C)c1CCS(=O)(=O)N1CCC2(CC1)N=C(CCCCCCCCCc1ccccc1)NC2=O [Compound 1348, 1-(3,5-dimethyl-4-{2-[4-oxo-2-(9-phenyl-nonyl)-1,3,8-triaza-spiro[4.5]dec-1-ene-8-sulfonyl]-ethyl}-phenyl)-1-methyl-urea]
118 | Cc1cc(N(C)C(N)=O)cc(C)c1/C=C/[S@TB3](=O)(=O)N1CCC2(CC1)N=C(CCCCCCC/C=C/c1ccccc1)NC2=O [Compound 1121, 1-(3,5-dimethyl-4-{(E)-2-[4-oxo-2-((E)-9-phenyl-non-8-enyl)-1,3,8-triaza-spiro[4.5]dec-1-ene-8-sulfonyl]-vinyl}-phenyl)-1-methyl-urea]
77 | Cc1cc(C(=O)N2CCC(C)(O)CC2)cc(C)c1/C=C/S(=O)(=O)N1CCC2(CC1)N=C(c1ccc(OCC(F)(F)C(F)F)c(Cl)c1)NC2=O [Compound 1201, 2-[3-chloro-4-(2,2,3,3-tetrafluoro-propoxy)-phenyl]-8-{(E)-2-[4-(4-hydroxy-4-methyl-piperidine-1-carbonyl)-2,6-dimethyl-phenyl]-ethenesulfonyl}-1,3,8-triaza-spiro[4.5]dec-1-en-4-one]
74 | Cc1cc(C(=O)N2CCCN2)cc(C)c1/C=C/S(=O)(=O)N1CCC2(CC1)N=C(C1CCC(CCC(F)(F)F)CC1)NC2=O (stereo not drawn) [Compound 997, 8-{(E)-2-[2,6-dimethyl-4-(pyrazolidine-1-carbonyl)-phenyl]-ethenesulfonyl}-2-[4-(3,3,3-trifluoro-propyl)-cyclohexyl]-1,3,8-triaza-spiro[4.5]dec-1-en-4-one]

The remaining lines, values behind:

SMILES | cAMP production activity (%)
Cc1cc(CC(N)=O)ccc1CCS(=O)(=O)N1CCC2(CC1)N=C(C1CCC(C)CC1)NC2=O (stereo not drawn) [Compound 750, 2-(3-Methyl-4-{2-[2-(4-methyl-cyclohexyl)-4-oxo-1,3,8-triaza-spiro[4.5]dec-1-ene-8-sulfonyl]-ethyl}-phenyl)-acetamide] | 87
Cc1cc(C(=O)N(C)C)ccc1CCS(=O)(=O)N1CCC2(CC1)N=C(c1cc(C(F)(F)F)ccc1Cl)NC2=O [Compound 85, 4-{2-[2-(2-chloro-5-trifluoromethyl-phenyl)-4-oxo-1,3,8-triaza-spiro[4.5]dec-1-ene-8-sulfonyl]-ethyl}-3,N,N-trimethyl-benzamide] | 76
O=C1NC(CC2CCCCC2)=NC12CCN(S(=O)(=O)c1cccc(Cl)c1)CC2 [Compound 28, 8-(3-chloro-benzenesulfonyl)-2-cyclohexylmethyl-1,3,8-triaza-spiro[4.5]dec-1-en-4-one] | 31
CC(=O)N(CC1(C)COC1)c1cc(C)c(/C=C/S(=O)(=O)N2CCC3(CC2)N=C(C2CCCCC2)NC3=O)c(C)c1 [Compound 574, N-{4-[(E)-2-(2-cyclohexyl-4-oxo-1,3,8-triaza-spiro[4.5]dec-1-ene-8-sulfonyl)-vinyl]-3,5-dimethyl-phenyl}-N-(3-methyl-oxetan-3-ylmethyl)-acetamide] | 42
Cc1cc(C(=O)N(C)C)ccc1CCS(=O)(=O)N1CCC2(CC1)N=C(c1cc(C(F)(F)F)cc(C(F)(F)F)c1)NC2=O [Compound 82, 4-{2-[2-(3,5-bis-trifluoromethyl-phenyl)-4-oxo-1,3,8-triaza-spiro[4.5]dec-1-ene-8-sulfonyl]-ethyl}-3,N,N-trimethyl-benzamide] | 65
Cc1cc(C(=O)N(C)C)ccc1CCS(=O)(=O)N1CCC2(CC1)N=C(c1cccc(Cl)c1C)NC2=O [Compound 133, 4-{2-[2-(3-chloro-2-methyl-phenyl)-4-oxo-1,3,8-triaza-spiro[4.5]dec-1-ene-8-sulfonyl]-ethyl}-3,N,N-trimethyl-benzamide] | 82
Cc1cc(C(=O)N(C)C)ccc1CCS(=O)(=O)N1CCC2(CC1)N=C(c1ccc(F)c(C(F)(F)F)c1)NC2=O [Compound 107, 4-{2-[2-(4-fluoro-3-trifluoromethyl-phenyl)-4-oxo-1,3,8-triaza-spiro[4.5]dec-1-ene-8-sulfonyl]-ethyl}-3,N,N-trimethyl-benzamide] | 110
O=C1NC(c2cccc(C(F)(F)F)c2)=NC12CCN(S(=O)(=O)CCc1cccc3ccccc13)CC2 [Compound 35, 8-(2-Naphthalen-1-yl-ethanesulfonyl)-2-(3-trifluoromethyl-phenyl)-1,3,8-triaza-spiro[4.5]dec-1-en-4-one] | 56
CC(=O)N(CCOCCF)c1ccc(/C=C/S(=O)(=O)N2CCC3(CC2)N=C(C2CCC(CCC(F)(F)F)CC2)NC3=O)c(C)c1 (stereo not drawn) [Compound 545, N-[2-(2-fluoro-ethoxy)-ethyl]-N-[3-methyl-4-((E)-2-{4-oxo-2-[4-(3,3,3-trifluoro-propyl)-cyclohexyl]-1,3,8-triaza-spiro[4.5]dec-1-ene-8-sulfonyl}-vinyl)-phenyl]-acetamide] | 86
Cc1nc(CC(=O)N2CCCC(C3=NC4(CCN(S(=O)(=O)CCc5cccc6ccccc56)CC4)C(=O)N3)C2)c(C)s1 (stereo not drawn) [Compound 433, 2-{1-[2-(2,5-dimethyl-thiazol-4-yl)-acetyl]-piperidin-3-yl}-8-(2-naphthalen-1-yl-ethanesulfonyl)-1,3,8-triaza-spiro[4.5]dec-1-en-4-one] | 18
Cc1cc(N2CCOCC2=O)cc(C)c1CCS(=O)(=O)N1CCC2(CC1)N=C(C1CCC(CCC(F)(F)F)CC1)NC2=O (stereo not drawn) [Compound 764, 8-{2-[2,6-dimethyl-4-(3-oxo-morpholin-4-yl)-phenyl]-ethanesulfonyl}-2-[4-(3,3,3-trifluoro-propyl)-cyclohexyl]-1,3,8-triaza-spiro[4.5]dec-1-en-4-one] | 124
CC(=O)N(CC#N)c1ccc(/C=C/S(=O)(=O)N2CCC3(CC2)N=C(c2cccc(OC(F)(F)F)c2)NC3=O)c(C)c1 [Compound 612, N-cyanomethyl-N-(3-methyl-4-{(E)-2-[4-oxo-2-(3-trifluoromethoxy-phenyl)-1,3,8-triaza-spiro[4.5]dec-1-ene-8-sulfonyl]-vinyl}-phenyl)-acetamide] | 62
CC(=O)Nc1cc(C)c(/C=C/S(=O)(=O)N2CCC3(CC2)N=C(c2cccc(OC(F)(F)F)c2)NC3=O)c(C)c1 [Compound 238, N-(3,5-dimethyl-4-{(E)-2-[4-oxo-2-(3-trifluoromethoxy-phenyl)-1,3,8-triaza-spiro[4.5]dec-1-ene-8-sulfonyl]-vinyl}-phenyl)-acetamide] | 90

same assay, conditions: HKRK-B7 cells; compound at 1×10^−3 M; cAMP produced as percentage of that produced by hPTH(1-34) at 100 nM; 0.1 µM

SMILES | cAMP production activity (%)
Cc1cc2ccc1CCS(=O)(=O)N1CCC3(CC1)N=C(NC3=O)c1cc(cc(C(F)(F)F)c1)OCCC=CCCCCN(C)C2=O [Compound 1410] | 51
